According to ChEMBL document CHEMBL4680322, “Mono- and bis-pyrazolophthalazines: Design, synthesis, cytotoxic activity, DNA/HSA binding and molecular docking studies” (Bioorg Med Chem, 2021):
Calls of active or inactive are those of the source. No cut-off for these calls is given here.

Legend:
A549 [1] = assay: Cytotoxicity against human A549 cells assessed as reduction in cell viability measured after 24 hrs by MTT assay; format: functional, cell-based; conditions: A549, 24 h
HepG2 = assay: Cytotoxicity against human HepG2 cells assessed as reduction in cell viability measured after 24 hrs by MTT assay; format: functional, cell-based; conditions: HepG2, 24 h
MCF7 [2] = assay: Cytotoxicity against human MCF7 cells assessed as reduction in cell viability measured after 24 hrs by MTT assay; format: functional, cell-based; conditions: MCF7, 24 h
HT-29 = assay: Cytotoxicity against human HT-29 cells assessed as reduction in cell viability measured after 24 hrs by MTT assay; format: functional, cell-based; conditions: HT-29, 24 h
MCF-10A = assay: Cytotoxicity against human MCF-10A cells assessed as reduction in cell viability; format: cell-based
MRC5 = assay: Cytotoxicity against human MRC5 cells assessed as reduction in cell viability; format: cell-based
Albumin [3] = biological target: T1, Albumin (Homo sapiens, UniProt P02768); assay: Binding affinity to human serum albumin assessed as alpha-helix perturbation with reduction in absorption intensity at 214 nm causing blue shift at 2 to 187 uM by UV-Visible spectroscopy; format: ADME, cell-free; conditions: dose 2-187 µM
Albumin [4] = biological target: T1, Albumin; assay: Binding affinity to human serum albumin assessed as conformational changes at 2 to 187 uM by UV-Visible spectroscopy; format: ADME, cell-free; conditions: dose 2-187 µM
Albumin [5] = biological target: T1, Albumin; assay: Binding affinity to human serum albumin assessed as microenvironmental changes at 2 to 187 uM by UV-Visible spectroscopy; format: ADME, cell-free; conditions: dose 2-187 µM
Albumin [6] = biological target: T1, Albumin; assay: Binding affinity to human serum albumin assessed as apparent binding constant for protein-compound complex by B-H plot analysis; format: ADME, cell-free
Albumin [7] = biological target: T1, Albumin; assay: Binding affinity to human serum albumin assessed as compound-protein complex stoichiometry ratio of 1:1 by B-H plot analysis; format: ADME, cell-free
Albumin [8] = biological target: T1, Albumin; assay: Binding affinity to human serum albumin assessed as induction of secondary structural changes by measuring decrease in alpha content at 187 uM by circular dichroism spectroscopy relative to control; format: cell-free; parameters: scale not given: the % may be the effect or the level left
Albumin [9] = biological target: T1, Albumin; assay: Binding affinity to human serum albumin assessed as zeta potential by measuring surface charge (reference value: -16.15 mV); format: ADME, cell-free
Albumin [10] = biological target: T1, Albumin; assay: Binding affinity to human serum albumin assessed as change in hydrodynamic radius by dynamic light scattering analysis (reference value: 3.56 nanometer); format: ADME, cell-free
Calf thymus DNA [11] = assay: Binding affinity to calf thymus DNA assessed as DNA-compound complex formation causing decrease in band intensity at 3 to 187 uM and pH 7.4 by UV-Visible spectroscopy; conditions: Bos taurus, dose 3-187 µM
Calf thymus DNA [12] = assay: Binding affinity to calf thymus DNA assessed as DNA-compound complex formation causing decrease in lambda-max shift at 3 to 187 uM and pH 7.4 by UV-Visible spectroscopy; conditions: Bos taurus, dose 3-187 µM
Calf thymus DNA [13] = assay: Binding affinity to calf thymus DNA assessed as compound-DNA complex stoichiometry ratio of 1:1 by B-H plot analysis; conditions: Bos taurus
Calf thymus DNA [14] = assay: Binding affinity to calf thymus DNA assessed as apparent binding constant for DNA-compound complex by B-H plot analysis; conditions: Bos taurus
Calf thymus DNA [15] = assay: Binding affinity to calf thymus DNA assessed as decrease in positive ellipticity by retaining basic CD spectrum shape at 187 uM by circular dichroism spectroscopy; conditions: Bos taurus
Calf thymus DNA [16] = assay: Binding affinity to calf thymus DNA assessed as zeta potential (reference value: -24.16 mV); format: tissue-based; conditions: Bos taurus
A549 [17] = assay: Potency index, ratio of doxorubicin IC50 to test compound IC50 for human A549 cells assessed as reduction in cell viability measured after 24 hrs by MTT assay; format: functional
MCF7 [18] = assay: Potency index, ratio of doxorubicin IC50 to test compound IC50 for human MCF7 cells assessed as reduction in cell viability measured after 24 hrs by MTT assay; format: functional

T1 sequence (P02768 whole entry): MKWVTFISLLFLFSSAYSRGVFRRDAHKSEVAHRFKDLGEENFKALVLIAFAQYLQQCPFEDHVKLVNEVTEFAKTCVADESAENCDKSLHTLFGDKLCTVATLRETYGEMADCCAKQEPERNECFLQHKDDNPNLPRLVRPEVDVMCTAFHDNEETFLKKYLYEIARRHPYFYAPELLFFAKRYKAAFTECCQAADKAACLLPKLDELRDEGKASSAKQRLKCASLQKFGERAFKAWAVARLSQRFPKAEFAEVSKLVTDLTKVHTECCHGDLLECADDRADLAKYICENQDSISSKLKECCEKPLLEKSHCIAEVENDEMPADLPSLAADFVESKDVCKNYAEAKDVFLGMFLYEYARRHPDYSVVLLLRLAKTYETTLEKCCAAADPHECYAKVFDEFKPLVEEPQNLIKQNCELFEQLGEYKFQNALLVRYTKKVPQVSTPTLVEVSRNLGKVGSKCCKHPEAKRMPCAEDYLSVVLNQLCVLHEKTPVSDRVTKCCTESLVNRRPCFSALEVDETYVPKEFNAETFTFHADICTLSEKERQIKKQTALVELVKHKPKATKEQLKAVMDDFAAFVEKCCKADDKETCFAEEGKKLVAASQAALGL

Compound | IC50 (A549 [1]) [µM] | IC50 (HepG2) [µM] | IC50 (MCF7 [2]) [µM] | IC50 (HT-29) [µM] | further results
N#CC1=C(N)n2c(=O)c3ccccc3c(=O)n2C1c1cccc(Cl)c1 (centres undefined) | 11.6 | 28.2 | 7.84 | 69.3 | 
N#CC1=C(N)n2c(=O)c3ccccc3c(=O)n2C1c1ccc(Cl)cc1 (centres undefined) | 40.6 | 16.8 | 5.53 | 25.4 | 
N#CC1=C(N)n2c(=O)c3ccccc3c(=O)n2C1c1ccc(O)c([N+](=O)[O-])c1 (centres undefined) | 47.5 | 19.5 | 77.4 | 124 | 
COc1ccc(C2C(C#N)=C(N)n3c(=O)c4ccccc4c(=O)n32)cc1 (centres undefined) | 39.8 | 93.8 | 23.9 | 66.5 | 
N#CC1=C(N)n2c(=O)c3ccccc3c(=O)n2C1c1ccc(OCCCCOc2ccc(C3C(C#N)=C(N)n4c(=O)c5ccccc5c(=O)n43)cc2)cc1 (centres undefined) | 264 | 426 | 155 | 419 | 
COc1ccc(C2C(C#N)=C(N)n3c(=O)c4ccccc4c(=O)n32)cc1OC (centres undefined) | 24.7 | 73.5 | 5.1 | 36.4 | 
N#CC1=C(N)n2c(=O)c3ccccc3c(=O)n2C1c1ccc([N+](=O)[O-])cc1 (centres undefined) | 212 | 170 | 60.8 | 79.1 | 
N#CC1=C(N)n2c(=O)c3ccccc3c(=O)n2C1c1ccc(C2C(C#N)=C(N)n3c(=O)c4ccccc4c(=O)n32)cc1 (centres undefined) | 17.6 | 84.6 | 11.4 | 90.9 | 
N#CC1=C(N)n2c(=O)c3ccccc3c(=O)n2C1c1ccc(OCCCOc2ccc(C3C(C#N)=C(N)n4c(=O)c5ccccc5c(=O)n43)cc2)cc1 (centres undefined) | 2.47 | 36.2 | 0.66 | 3.1 | 
N#CC1=C(N)n2c(=O)c3ccccc3c(=O)n2C1c1cccc(C2C(C#N)=C(N)n3c(=O)c4ccccc4c(=O)n32)c1 (centres undefined) | 18.2 | 50.8 | 8.66 | 186 | 
N#CC1=C(N)n2c(=O)c3ccccc3c(=O)n2C1c1ccccc1 (centres undefined) | 39.7 | 81.7 | 41.6 | 132 | 
N#CC1=C(N)n2c(=O)c3ccccc3c(=O)n2C1c1ccccc1Cl (centres undefined) | 1.25 | 27.9 | 7.32 | 7.14 | IC50 (MCF-10A): 213 µM; IC50 (MRC5): 388 µM; Activity (Albumin [3]): Active; Activity (Albumin [4]): Active; Activity (Albumin [5]): Active; Kapp (Albumin [6]): 5.2 10^3/M; Activity (Albumin [7]): Active; Activity (Albumin [8]): 47.71%; Activity (Albumin [9]): -13.25 mV; Activity (Albumin [10]): 5.13 nm; Activity (Calf thymus DNA [11]): Active; Activity (Calf thymus DNA [12]): Active; Activity (Calf thymus DNA [13]): Active; Kapp (Calf thymus DNA [14]): 4.2 10^4/M; Activity (Calf thymus DNA [15]): -18.1 mV; Activity (Calf thymus DNA [16]): Active
N#CC1=C(N)n2c(=O)c3ccccc3c(=O)n2C1c1ccc(OCCOc2ccc(C3C(C#N)=C(N)n4c(=O)c5ccccc5c(=O)n43)cc2)cc1 (centres undefined) | 183 | 249 | 91.3 | 268 | 
N#CC1=C(N)n2c(=O)c3ccccc3c(=O)n2C1c1ccccc1OCCCOc1ccccc1C1C(C#N)=C(N)n2c(=O)c3ccccc3c(=O)n21 (centres undefined) | 104 | 104 | 35.2 | 44.6 | 
N#CC1=C(N)n2c(=O)c3ccccc3c(=O)n2C1c1ccccc1OCCOc1ccccc1C1C(C#N)=C(N)n2c(=O)c3ccccc3c(=O)n21 (centres undefined) | 1.35 | 11.6 | 0.49 | 3.71 | IC50 (MCF-10A): 61.2 µM; IC50 (MRC5): 71.2 µM; Activity (Albumin [3]): Active; Activity (Albumin [4]): Active; Activity (Albumin [5]): Active; Kapp (Albumin [6]): 3.8 10^4/M; Activity (Albumin [7]): Active; Activity (Albumin [8]): 48.08%; Activity (Albumin [9]): -14.41 mV; Activity (Albumin [10]): 5.28 nm; Activity (Calf thymus DNA [11]): Active; Activity (Calf thymus DNA [12]): Active; Activity (Calf thymus DNA [13]): Active; Kapp (Calf thymus DNA [14]): 5 10^4/M; Activity (Calf thymus DNA [15]): -17.8 mV; Activity (Calf thymus DNA [16]): Active; Ratio IC50 (A549 [17]): 2; Ratio IC50 (MCF7 [18]): 2
N#CC1=C(N)n2c(=O)c3ccccc3c(=O)n2C1c1ccc(Cl)cc1Cl (centres undefined) | 64 | 11.4 | 10.4 | 1.56 | 
COc1cccc(C2C(C#N)=C(N)n3c(=O)c4ccccc4c(=O)n32)c1 (centres undefined) | 38.3 | 178 | 23.2 | 107 | 
COc1cccc2c1C(=O)c1c(O)c3c(c(O)c1C2=O)C[C@@](O)(C(=O)CO)C[C@@H]3O[C@H]1C[C@H](N)[C@H](O)[C@H](C)O1 [DOXORUBICIN] | 2.31 | 2.32 | 1.77 | 1.13 | IC50 (MCF-10A): 3.52 µM; IC50 (MRC5): 3.88 µM
COc1ccccc1C1C(C#N)=C(N)n2c(=O)c3ccccc3c(=O)n21 (centres undefined) | 627 | 697 | 455 | 79.7 | 
N#CC1=C(N)n2c(=O)c3ccccc3c(=O)n2C1c1ccccc1OCCCCOc1ccccc1C1C(C#N)=C(N)n2c(=O)c3ccccc3c(=O)n21 (centres undefined) | 111 | 244 | 44.6 | 82.4 | 
N#CC1=C(N)n2c(=O)c3ccccc3c(=O)n2C1c1cccc([N+](=O)[O-])c1 (centres undefined) | 18.3 | 12.6 | 39.9 | 41.1 | 
N#CC1=C(N)n2c(=O)c3ccccc3c(=O)n2C1c1ccc(Br)cc1 (centres undefined) | 81.6 | 40.5 | 5.97 | 31 | 
